Patent publication US20240147987A1, “METHOD FOR IMPROVING THE EFFECT OF THE OOCYTE CRYOPRESERVATION BY REDUCING THE MITOCHONDRIAL TEMPERATURE” (China Agricultural University, priority 2022, published 2024)
Values joined by “and” are separate entries in the source; they are usually repeats but may differ in a detail not shown here. Equal entries are not always repeated.

Legend:
[1] = system: porcine oocytes; experiment: Oocyte mitochondrial temperature detection (Mito Thermo Yellow probe fluorescence); format: cell-based
Description: (§1) 100 nM Mito Thermo Yellow dye was added in TL-HEPES-0.3% BSA solution and preheated for 15 min at 37° C. in an incubator containing 5% CO2, the oocytes were moved into the preheated dye solution in the incubator for 15 min and then washed three times with TL-HEPES-0.3% BSA for 10 min each time, the fluorescence intensity was detected by laser confocal microscopy, and the changes of mitochondrial temperature were analyzed.
Metformin can effectively reduce mitochondrial heat production.

[2] = system: porcine oocytes; experiment: Parthenogenetic activation of oocytes (cleavage and blastocyst development)
Description: After the first polar body was extruded, mature oocytes with uniform cytoplasm were selected for parthenogenetic activation. The oocytes were washed three times with a pre-heated electro-activation solution, and then the oocytes were placed between electrodes filled with the activation solution, the electro-activation solution was 0.3 M mannitol, 0.05 mM CaCl2, 0.1 mM MgCl2, and 0.4% (m/v) bovine serum albumin dissolved in water. An electric fusion meter (Fujihira Industry Co. Ltd, Tokyo, Japan) was used for electrical activation, the electric field intensity was 65 V/mm, the DC pulse duration was 80 μs, and the number of pulses was 1. The activated oocytes were cultured in PZM-3 containing 5 μg/mL cytochalasin B and 10 μg/mL cycloheximide at 38.5° C., 5% CO2 for 4 h. Then the oocytes were washed and cultured in PZM-3 (day 0). The number of cleavage embryos was counted on day 2 and blastocyst formation was recorded on day 7.

[3] = system: porcine oocytes; experiment: Oocyte membrane fluidity detection by FRAP; format: cell-based; conditions: metformin pretreatment; P<0.05
Description: The membrane fluidity of oocytes was detected by fluorescence recovery after photobleaching (FRAP). The oocytes were first placed in TL-HEPES-0.3% BSA solution containing cell membrane fluorescent probe Dil, and incubated at 37° C. in the incubator containing 5% CO2 for 10 min. After incubation, the oocytes were washed three times within TL-HEPES-0.3% BSA solution, and then the oocytes were placed in a confocal dish. FRAP experiments were performed on a confocal microscope. Firstly, a bleaching area was selected, and three fluorescence images were collected before bleaching, with an interval of 5 s for each image. The bleaching fluorescence intensity was 100%, and the bleaching time was 7.93 s. Recovery time was 3 min after bleaching, and fluorescence images were collected at 5 s intervals. The fluorescence intensity of the bleaching area was statistically analyzed and the data were normalized.

[4] = system: vitrified porcine oocytes; experiment: Survival rate detection of vitrified oocytes after thawing (FDA staining); format: cell-based; conditions: freezing group 71.85%
Description: The room temperature was adjusted to 25±1° C. so that the test apparatus and reagents were fully balanced, the experiment was carried out on a 37° C. thermostat, the oocytes were transferred into 20% EG solution for 3 min, and then transferred into the vitrification solution EDFS40 for 30-40 s, the oocytes were then placed on the cryocarrier Cryotop. […] When thawing the oocytes, the Cryotop was taken out from liquid nitrogen, and the oocytes were immediately immersed in PBS containing 1M sucrose (containing 20% FBS) on a thermostatic table (37° C.) for 1 min, and then transferred to PBS containing 0.5M and 0.25M sucrose (containing 20% FBS) for 3 min, and then placed in PBS containing 20% FBS for recovery for 5 min, and then washed three times with mature medium and placed in mature medium for recovery for 2 hours. • (1) Survival Rate Detection of Oocytes after Thawing
The survival rate of oocytes was detected by FDA (fluorescein diacetate) staining. The collected oocytes were incubated in TL-HEPES-0.3% BSA solution containing 2.5 μg/mL FDA for 1 min and then washed three times with TL-HEPES-0.3% BSA solution, the oocytes were placed on a petri dish and observed using a fluorescence microscope, the oocytes with green fluorescence were considered to be alive.

[5] = system: vitrified oocytes; experiment: Mitochondrial temperature of vitrified oocytes after thawing (MTY probe); format: cell-based, porcine; conditions: metformin pretreatment before freezing; P<0.01
Description: as §1
The room temperature was adjusted to 25±1° C. so that the test apparatus and reagents were fully balanced, the experiment was carried out on a 37° C. thermostat, the oocytes were transferred into 20% EG solution for 3 min, and then transferred into the vitrification solution EDFS40 for 30-40 s, the oocytes were then placed on the cryocarrier Cryotop. […]
The effect of metformin pretreatment on the mitochondrial temperature of vitrified oocytes was further analyzed.

[6] = system: vitrified oocytes; experiment: Ultrastructural observation of lipid droplets in oocytes (TEM); format: cell-based, porcine; conditions: metformin pretreatment
Description: The oocytes were washed with DPBS and fixed overnight at 4° C. in a 0.1M dimethylarsenate buffer containing 2.5% (m/v) glutaraldehyde. After washing with DPBS, oocytes were fixed with 1% osmic acid, then washed with DPBS, and dehydrated in a gradient of 30%, 50%, 70%, 80%, 90%, and 100% acetone. The epoxy resin SPURR was used for embedding-polymerization, and the LKB-V slicing machine (ultra-thin slice thickness 50 nm (diamond knife)) was used for slicing, and then the double staining of uranium acetate-lead citrate was carried out on the copper mesh of the electron microscope, the copper mesh containing the sample was dried in a glass dish overnight, and the image was collected using a transmission electron microscope (TEM) at 80 kv (HITACHI, New Bio-TEM H-7500, Japan).

[7] = rotenone-treated group vs control group, after parthenogenetic activation, P<0.01
[8] = 1 μM UK5099 vs control group, after parthenogenetic activation
[9] = 2 μM UK5099 vs control group, after parthenogenetic activation
[10] = UK5099 0.5 μM, 1 μM, 2 μM, 4 μM

SMILES: C=C(C)[C@H]1Cc2c(ccc3c2O[C@@H]2COc4cc(OC)c(OC)cc4[C@@H]2C3=O)O1 [rotenone]
- mitochondrial temperature ([1]; 1 μM rotenone treatment for 1 h, P<0.01): significantly reduced
- blastocyst development rate [2, 7]: significantly decreased
- cleavage rate [2, 7]: significantly decreased
- cytotoxicity ([2]; summary statement on rotenone): greater cytotoxicity

SMILES: CN(C)C(=N)N=C(N)N [metformin]
- mitochondrial temperature ([1]; 400 μM metformin treatment for 1 h, P<0.05): significantly reduce mitochondrial temperature
- cleavage rate ([2]; metformin pretreatment group vs control group, after parthenogenetic activation, day 2): no significant difference
- blastocyst development rate ([2]; metformin pretreatment group vs control group, after parthenogenetic activation, day 7): no significant difference
- plasma membrane fluidity [3]: significantly decreased
- Survival rate (%) ([4]; pretreated with 400 μM metformin for 1 h before vitrification, P<0.05): 81.36%
- Survival rate (%) ([4]; pretreated with 400 μM metformin for 1 h before vitrification, P<0.05, listed as Metformin): 81.36^c(179/330) %
- mitochondrial temperature of vitrified oocytes after thawing [5]: significantly higher than that of the conventional freezing group
- size of lipid droplets in oocytes [6]: close to that of the fresh group

SMILES: CC[C@H]1/C=C/C=C/C[C@@H](C)[C@H](O)[C@@](C)(O)C(=O)[C@@H](C)[C@H](O)[C@@H](C)C(=O)[C@@H](C)[C@H](O)[C@@H](C)/C=C/C(=O)O[C@@H]2[C@H](C)[C@H](CC1)O[C@]1(CC[C@H](C)[C@H](C[C@@H](C)O)O1)[C@H]2C [oligomycin]
- mitochondrial temperature ([1]; 0.5 μM oligomycin treatment for 1 h, P<0.01): significantly reduce
- mitochondrial temperature ([1]; 1.5 μM oligomycin treatment for 1 h, P<0.01): significantly reduce
- mitochondrial temperature ([1]; 2.5 μM oligomycin treatment for 1 h, P<0.01): significantly reduce
- blastocyst development rate ([2]; 0.5 μM oligomycin vs control group): significantly lower
- blastocyst development ([2]; 1.5 μM oligomycin vs control group, P<0.01): significantly lower
- blastocyst development ([2]; 2.5 μM oligomycin vs control group, P<0.01): significantly lower
- cleavage rate ([2]; different concentrations of oligomycin vs control group, parthenogenetic activation, P<0.01): significantly lower
- Survival rate (%) ([4]; oligomycin pretreatment before vitrification, P<0.05): 29.79%
- Survival rate (%) ([4]; oligomycin pretreatment before vitrification, P<0.05, listed as Oligomycin): 29.79^c(56/188) %

SMILES: N#C/C(=C\c1cn(-c2ccccc2)c2ccccc12)C(=O)O [UK5099]
- mitochondrial temperature ([1]; 1 μM UK5099 treatment for 1 h, P<0.05): significantly reduced
- mitochondrial temperature ([1]; 2 μM UK5099 treatment for 1 h, P<0.01): significantly reduced
- blastocyst rate [2, 8]: not significantly different
- cleavage rate [2, 8]: not significantly different
- blastocyst rate [2, 9]: not significantly different
- cleavage rate [2, 9]: not significantly different
- blastocyst rate, trend with concentration [2, 10]: decreased with the increase of UK5099 concentration
- cleavage rate, trend with concentration [2, 10]: decreased with the increase of UK5099 concentration
- Survival rate (%) ([4]; UK5099 pretreatment before vitrification, P>0.05): 67.50% and 67.50^b(135/200) %
